Laboratory results reported in US12208088B2 (Genentech, Inc., priority 2018, dated 2025).

Key:
[1] = system: primary human pan T cells; assay: Human T-cell IL2 induction assay; type: cell-based; details: IL-2, anti-CD3/anti-CD28 stimulated T cells
Description: Example B3: Human T-Cell IL2 Induction Assay
Anti-CD3 and anti-CD28 activates TCR signaling in primary human pan T cells leading to IL-2 promoter induction. Secreted IL-2 in cell culture supernatant is detected by electrochemiluminescence using a capture antibody against IL-2 and an anti-IL-2 antibody labeled with SULFO-tag.
See www.mesoscale.com for additional electrochemiluminescence technology information.
Incubate primary human pan T cells with varying concentrations of test compounds for 30 minutes in a humidified incubator at 37° C. and 5% CO2. Transfer cells to a plate pre-coated with a fixed concentration of anti-human CD3 (determined separately for each donor lot) and add soluble anti-human CD28 (final concentration=1 μg/ml). Stimulate cells in a humidified incubator at 37° C. and 5% CO2 for 4 hours. Transfer 25 μl of supernatant to a MSD single spot plate pre-coated with an anti-human IL-2 antibody. Incubate MSD plate overnight at 4° C. with gentle shaking. Wash MSD plate 4× with wash buffer. Add SULFO-tagged detection antibody at a 1:50 dilution and incubate at room temperature shaking for 2 hours. Wash MSD plate 4× with wash buffer and add […] 2×MSD read buffer. Read on an MSD instrument. Normalize data to stimulated/untreated controls to calculate % activity at each concentration of compound.
• Frozen Primary Human Pan-T Cells (StemCell Technologies #70024) • anti-human CD3 (OKT3 clone) (eBioscience #16-0037-81) • anti-human CD28 (CD28.2 clone) (BD #555725) • 96-well Human IL-2 tissue culture kit (MSD #K151AHB-4) Instrumentation: • Biomek FX for liquid handling (Beckman Coulter) • MSD SECTOR S 600 (Meso Scale Discovery)
Exemplary compounds of Formula (I) were tested in the human T-cell IL-2 induction assays. The % increase measured for IL-2 in cells treated by the test compounds relative to untreated cells are provided in Table B2 for certain compounds.

HPK1 = HPK1 (Homo sapiens (Human), UniProt Q92918); assay: HPK1 Lantha binding assay ("Lanth"); details: binding assays; Morrison Ki fit
Chain of HPK1 (Q92918 1-346 limits assumed): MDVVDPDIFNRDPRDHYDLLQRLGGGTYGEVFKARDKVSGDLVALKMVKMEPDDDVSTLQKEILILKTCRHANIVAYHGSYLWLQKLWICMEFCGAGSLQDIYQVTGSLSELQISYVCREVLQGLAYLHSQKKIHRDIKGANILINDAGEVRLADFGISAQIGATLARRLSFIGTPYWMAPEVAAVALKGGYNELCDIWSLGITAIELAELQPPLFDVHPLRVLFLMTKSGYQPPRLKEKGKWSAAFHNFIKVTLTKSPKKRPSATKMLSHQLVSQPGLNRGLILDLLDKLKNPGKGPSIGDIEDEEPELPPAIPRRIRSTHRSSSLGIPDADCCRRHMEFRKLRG
Method in brief: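 TR-FRET binding competition using 2 nM HPK1, 2 nM Eu-anti-GST antibody and 15 nM Tracer222 at 23 °C. Compound was incubated 1 h with enzyme and antibody, then 1 h after tracer addition, with an 11-point 5-fold dilution series. Ki obtained from a Morrison fit that corrects for tracer concentration and Kd.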

Ki (HPK1) | Structure (SMILES) | also measured
– | Cc1c(CC#N)ccnc1-c1cc(N)cc(-c2cnc3c(c2Cl)[C@@]2(CC[C@@](C)(C#N)C2)CN3)c1 (stereo in doubt) [Compound 274b, (1S,3R)-5′-(3-Amino-5-(4-(cyanomethyl)-3-methylpyridin-2-yl)phenyl)-4′-chloro-3-methyl-1′,2′-dihydrospiro[cyclopentane-1,3′-pyrrolo[2,3-b]pyridine]-3-carbonitrile] | % IL relative to untreated cells ([1]; assayed concentration 0.926 μM): 564%
– | CC[C@H]1C[C@@]12CNc1ncc(-c3ccc(N)c(C(=O)N(C)C)c3F)cc12 [Compound 243a, 6-Amino-3-((1R,2S)-2-ethyl-1′,2′-dihydrospiro[cyclopropane-1,3′-pyrrolo[2,3-b]pyridin]-5′-yl)-2-fluoro-N,N-dimethylbenzamide] | % IL relative to untreated cells ([1]; assayed concentration 2.8 μM): 111%
8.49 nM | CN(C)C(=O)c1c(N)ccc(-c2cnc3c(c2Cl)[C@]2(CC[C@](C)(C#N)CC2)CN3)c1F [Compound 250a, 6-Amino-3-((1s,4s)-4′-chloro-4-cyano-4-methyl-1′,2′-dihydrospiro[cyclohexane-1,3′-pyrrolo[2,3-b]pyridin]-5′-yl)-2-fluoro-N,N-dimethylbenzamide] | % IL relative to untreated cells ([1]; assayed concentration 25 μM): 504%
3 nM | CN(C)C(=O)c1c(N)ccc(-c2cnc3c(c2Cl)[C@]2(CC[C@@H](CO)C2)CN3)c1F [Compound 259c, 6-Amino-3-((1R,3R)-4′-chloro-3-(hydroxymethyl)-1′,2′-dihydrospiro[cyclopentane-1,3′-pyrrolo[2,3-b]pyridin]-5′-yl)-2-fluoro-N,N-dimethylbenzamide] | % IL relative to untreated cells ([1]; assayed concentration 8.3 μM): 604%
– | Cc1c(CC#N)ccnc1-c1cccc(-c2cnc3c(c2Cl)[C@@]2(CC[C@@](C)(C(N)=O)C2)CN3)c1F [Compound 267b, (1S,3R)-4′-Chloro-5′-(3-(4-(cyanomethyl)-3-methylpyridin-2-yl)-2-fluorophenyl)-3-methyl-1′,2′-dihydrospiro[cyclopentane-1,3′-pyrrolo[2,3-b]pyridine]-3-carboxamide] | % IL relative to untreated cells ([1]; assayed concentration 0.926 μM): 298%
12.4 nM | CN(c1cc(C#N)cc2c(-c3cnc4c(c3)C3(CC3)CN4)cn(C)c12)S(C)(=O)=O [Compound 341, N-(5-Cyano-3-(1′,2′-dihydrospiro[cyclopropane-1,3′-pyrrolo[2,3-b]pyridin]-5′-yl)-1-methyl-1H-indol-7-yl)-N-methylmethanesulfonamide] | –
73.4 nM | N#CCc1ccc2[nH]cc(-c3cnc4c(c3)C3(CC3)CN4)c2c1 [Compound 342, 2-(3-(1′,2′-Dihydrospiro[cyclopropane-1,3′-pyrrolo[2,3-b]pyridin]-5′-yl)-1H-indol-5-yl)acetonitrile] | –
74 nM | CN(c1ccc2c(-c3cnc4c(c3)C3(CC3)CN4)c[nH]c2c1)c1cnn(C)c1 [Compound 343, 3-(1′,2′-Dihydrospiro[cyclopropane-1,3′-pyrrolo[2,3-b]pyridin]-5′-yl)-N-methyl-N-(1-methyl-1H-pyrazol-4-yl)-1H-indol-6-amine] | –
590 nM | N#Cc1ccc2ccn(-c3cnc4c(c3)C3(CC3)CN4)c2c1 [Compound 344, 1-(1′,2′-Dihydrospiro[cyclopropane-1,3′-pyrrolo[2,3-b]pyridin]-5′-yl)-1H-indole-6-carbonitrile] | –
94 nM | Cn1cc(Nc2ccc3c(-c4cnc5c(c4)C4(CC4)CN5)c[nH]c3c2)cn1 [Compound 345, 3-(1′,2′-Dihydrospiro[cyclopropane-1,3′-pyrrolo[2,3-b]pyridin]-5′-yl)-N-(1-methyl-1H-pyrazol-4-yl)-1H-indol-6-amine] | –
